Measured values published in PMC10507085, “Pharmacological inhibition of TBK1/IKKε blunts immunopathology in a murine model of SARS-CoV-2 infection” (Nature Communications, 2023).

Legend:
Assay in all cases: biochemical
Design in all cases: KINOMEscan competition binding, DNA-tagged kinase against immobilised ligand, qPCR read-out
Conditions in all cases: read-out: Percent Control
STK32A = STK32A (Homo sapiens, UniProt Q8WU08)
[1] = target: T1, RSK3(Kin.Dom.2-C-terminal) (Homo sapiens, UniProt Q15349)
T1 construct: gene RPS6KA2; Kin.Dom.2 C-terminal

PRKX = PRKX (Homo sapiens, UniProt P51817)
MAP3K1 = MAP3K1 (Homo sapiens, UniProt Q13233)
PIK3C3 = PIK3C3 (Homo sapiens, UniProt Q8NEB9)
KIAA0999 = target: T2, KIAA0999 (Homo sapiens, UniProt Q9Y2K2)
T2 construct: gene SIK3

MAPK9 = MAPK9 (Homo sapiens, UniProt P45984)
MARK2 = MARK2 (Homo sapiens, UniProt Q7KZI7)
MAPK10 = MAPK10 (Homo sapiens, UniProt P53779)
PAK1 = PAK1 (Homo sapiens, UniProt Q13153)
MAP3K15 = MAP3K15 (Homo sapiens, UniProt Q6ZN16)
[2] = target: T3, TYK2(JH2domain-pseudokinase) (Homo sapiens, UniProt P29597)
T3 construct: JH2 domain pseudokinase

PIK3CA = PIK3CA (Homo sapiens, UniProt P42336)
CLK3 = CLK3 (Homo sapiens, UniProt P49761)
PRKD2 = PRKD2 (Homo sapiens, UniProt Q9BZL6)
CSF1R-autoinhibited = CSF1R-autoinhibited (Homo sapiens, UniProt P07333)
MAP4K3 = MAP4K3 (Homo sapiens, UniProt Q8IVH8)
HIPK3 = HIPK3 (Homo sapiens, UniProt Q9H422)
VRK2 = VRK2 (Homo sapiens, UniProt Q86Y07)
GRK1 = GRK1 (Homo sapiens, UniProt Q15835)

Sequence of HIPK3 (Q9H422 whole entry): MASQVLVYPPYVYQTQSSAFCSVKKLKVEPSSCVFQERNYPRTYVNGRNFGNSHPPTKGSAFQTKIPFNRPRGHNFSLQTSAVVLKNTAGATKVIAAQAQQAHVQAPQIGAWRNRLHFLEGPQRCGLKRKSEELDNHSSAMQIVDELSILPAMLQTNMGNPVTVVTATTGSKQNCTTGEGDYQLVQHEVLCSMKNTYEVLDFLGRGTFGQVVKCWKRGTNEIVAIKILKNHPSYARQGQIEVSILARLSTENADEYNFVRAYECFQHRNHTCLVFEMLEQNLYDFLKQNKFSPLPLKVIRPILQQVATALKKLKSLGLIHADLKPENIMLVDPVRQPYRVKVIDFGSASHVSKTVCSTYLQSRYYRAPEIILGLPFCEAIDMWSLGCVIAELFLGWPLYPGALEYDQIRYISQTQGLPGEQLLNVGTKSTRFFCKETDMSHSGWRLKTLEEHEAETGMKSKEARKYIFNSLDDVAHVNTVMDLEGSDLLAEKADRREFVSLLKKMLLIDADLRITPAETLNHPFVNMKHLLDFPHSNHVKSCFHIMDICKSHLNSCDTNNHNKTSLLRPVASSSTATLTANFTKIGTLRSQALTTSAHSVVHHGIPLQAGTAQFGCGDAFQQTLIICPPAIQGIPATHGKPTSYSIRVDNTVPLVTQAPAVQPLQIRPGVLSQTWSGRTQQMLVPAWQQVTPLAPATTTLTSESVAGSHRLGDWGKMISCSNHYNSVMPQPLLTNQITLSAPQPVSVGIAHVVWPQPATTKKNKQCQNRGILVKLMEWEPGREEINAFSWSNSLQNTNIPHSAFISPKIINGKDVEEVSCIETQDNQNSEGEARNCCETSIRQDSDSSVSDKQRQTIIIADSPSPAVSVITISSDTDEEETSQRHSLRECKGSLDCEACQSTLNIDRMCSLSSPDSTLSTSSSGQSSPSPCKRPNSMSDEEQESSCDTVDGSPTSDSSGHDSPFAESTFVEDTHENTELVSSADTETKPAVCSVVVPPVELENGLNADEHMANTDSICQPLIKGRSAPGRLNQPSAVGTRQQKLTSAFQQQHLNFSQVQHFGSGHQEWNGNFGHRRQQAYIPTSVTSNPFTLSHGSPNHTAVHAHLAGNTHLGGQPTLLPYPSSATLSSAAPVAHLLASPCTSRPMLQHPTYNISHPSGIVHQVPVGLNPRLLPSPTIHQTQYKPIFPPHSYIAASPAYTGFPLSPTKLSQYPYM
Sequence of PAK1 (Q13153 whole entry): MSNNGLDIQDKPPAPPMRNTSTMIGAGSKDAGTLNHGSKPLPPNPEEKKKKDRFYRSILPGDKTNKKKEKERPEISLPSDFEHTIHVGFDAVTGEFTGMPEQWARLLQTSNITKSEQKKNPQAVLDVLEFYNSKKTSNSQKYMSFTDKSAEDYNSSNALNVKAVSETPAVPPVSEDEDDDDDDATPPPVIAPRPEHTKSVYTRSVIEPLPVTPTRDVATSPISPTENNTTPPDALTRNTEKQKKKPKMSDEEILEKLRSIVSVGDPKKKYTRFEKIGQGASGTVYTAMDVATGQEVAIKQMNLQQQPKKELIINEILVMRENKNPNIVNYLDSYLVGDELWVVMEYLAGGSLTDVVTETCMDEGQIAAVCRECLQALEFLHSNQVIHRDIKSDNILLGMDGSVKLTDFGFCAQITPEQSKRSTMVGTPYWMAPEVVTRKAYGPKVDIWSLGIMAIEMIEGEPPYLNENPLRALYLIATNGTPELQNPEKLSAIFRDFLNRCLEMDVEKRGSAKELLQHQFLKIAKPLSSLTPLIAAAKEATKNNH
Sequence of MAP3K1 (Q13233 whole entry): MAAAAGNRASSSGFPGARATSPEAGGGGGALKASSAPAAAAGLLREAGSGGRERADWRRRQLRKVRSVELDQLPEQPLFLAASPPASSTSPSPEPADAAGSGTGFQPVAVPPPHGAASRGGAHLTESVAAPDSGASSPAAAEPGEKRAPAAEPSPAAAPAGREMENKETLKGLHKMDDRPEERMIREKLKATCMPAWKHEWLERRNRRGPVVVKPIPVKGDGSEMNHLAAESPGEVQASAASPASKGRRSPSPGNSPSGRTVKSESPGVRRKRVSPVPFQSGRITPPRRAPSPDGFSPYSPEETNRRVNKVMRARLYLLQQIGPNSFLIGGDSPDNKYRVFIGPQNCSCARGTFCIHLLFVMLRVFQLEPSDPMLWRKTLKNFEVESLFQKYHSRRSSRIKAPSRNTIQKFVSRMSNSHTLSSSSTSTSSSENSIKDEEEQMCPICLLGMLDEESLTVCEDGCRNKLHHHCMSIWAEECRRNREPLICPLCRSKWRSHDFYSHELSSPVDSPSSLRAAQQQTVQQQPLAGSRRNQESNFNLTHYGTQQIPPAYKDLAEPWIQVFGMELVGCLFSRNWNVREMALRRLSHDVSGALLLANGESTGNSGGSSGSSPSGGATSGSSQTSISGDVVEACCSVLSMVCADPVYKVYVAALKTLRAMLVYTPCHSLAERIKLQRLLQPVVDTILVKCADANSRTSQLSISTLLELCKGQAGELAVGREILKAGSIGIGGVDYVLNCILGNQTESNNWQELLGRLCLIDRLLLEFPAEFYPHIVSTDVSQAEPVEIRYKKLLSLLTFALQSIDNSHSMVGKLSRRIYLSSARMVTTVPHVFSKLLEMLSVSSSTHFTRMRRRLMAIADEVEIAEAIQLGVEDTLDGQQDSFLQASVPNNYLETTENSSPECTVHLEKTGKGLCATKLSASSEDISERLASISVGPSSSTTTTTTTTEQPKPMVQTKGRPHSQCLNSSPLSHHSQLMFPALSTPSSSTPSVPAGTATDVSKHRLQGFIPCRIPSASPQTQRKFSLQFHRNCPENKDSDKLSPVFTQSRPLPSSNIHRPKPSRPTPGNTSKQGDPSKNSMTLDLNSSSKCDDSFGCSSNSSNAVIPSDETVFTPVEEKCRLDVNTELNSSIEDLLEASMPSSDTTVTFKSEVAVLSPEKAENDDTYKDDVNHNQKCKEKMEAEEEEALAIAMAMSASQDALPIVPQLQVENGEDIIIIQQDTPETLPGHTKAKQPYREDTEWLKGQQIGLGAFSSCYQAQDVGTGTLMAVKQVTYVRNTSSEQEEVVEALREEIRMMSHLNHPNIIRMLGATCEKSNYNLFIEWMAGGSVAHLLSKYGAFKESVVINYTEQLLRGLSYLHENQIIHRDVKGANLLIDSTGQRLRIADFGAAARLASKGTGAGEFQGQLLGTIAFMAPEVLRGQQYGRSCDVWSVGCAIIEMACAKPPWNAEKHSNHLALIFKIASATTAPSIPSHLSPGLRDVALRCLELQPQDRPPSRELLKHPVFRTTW
Sequence of MAP3K15 (Q6ZN16 whole entry): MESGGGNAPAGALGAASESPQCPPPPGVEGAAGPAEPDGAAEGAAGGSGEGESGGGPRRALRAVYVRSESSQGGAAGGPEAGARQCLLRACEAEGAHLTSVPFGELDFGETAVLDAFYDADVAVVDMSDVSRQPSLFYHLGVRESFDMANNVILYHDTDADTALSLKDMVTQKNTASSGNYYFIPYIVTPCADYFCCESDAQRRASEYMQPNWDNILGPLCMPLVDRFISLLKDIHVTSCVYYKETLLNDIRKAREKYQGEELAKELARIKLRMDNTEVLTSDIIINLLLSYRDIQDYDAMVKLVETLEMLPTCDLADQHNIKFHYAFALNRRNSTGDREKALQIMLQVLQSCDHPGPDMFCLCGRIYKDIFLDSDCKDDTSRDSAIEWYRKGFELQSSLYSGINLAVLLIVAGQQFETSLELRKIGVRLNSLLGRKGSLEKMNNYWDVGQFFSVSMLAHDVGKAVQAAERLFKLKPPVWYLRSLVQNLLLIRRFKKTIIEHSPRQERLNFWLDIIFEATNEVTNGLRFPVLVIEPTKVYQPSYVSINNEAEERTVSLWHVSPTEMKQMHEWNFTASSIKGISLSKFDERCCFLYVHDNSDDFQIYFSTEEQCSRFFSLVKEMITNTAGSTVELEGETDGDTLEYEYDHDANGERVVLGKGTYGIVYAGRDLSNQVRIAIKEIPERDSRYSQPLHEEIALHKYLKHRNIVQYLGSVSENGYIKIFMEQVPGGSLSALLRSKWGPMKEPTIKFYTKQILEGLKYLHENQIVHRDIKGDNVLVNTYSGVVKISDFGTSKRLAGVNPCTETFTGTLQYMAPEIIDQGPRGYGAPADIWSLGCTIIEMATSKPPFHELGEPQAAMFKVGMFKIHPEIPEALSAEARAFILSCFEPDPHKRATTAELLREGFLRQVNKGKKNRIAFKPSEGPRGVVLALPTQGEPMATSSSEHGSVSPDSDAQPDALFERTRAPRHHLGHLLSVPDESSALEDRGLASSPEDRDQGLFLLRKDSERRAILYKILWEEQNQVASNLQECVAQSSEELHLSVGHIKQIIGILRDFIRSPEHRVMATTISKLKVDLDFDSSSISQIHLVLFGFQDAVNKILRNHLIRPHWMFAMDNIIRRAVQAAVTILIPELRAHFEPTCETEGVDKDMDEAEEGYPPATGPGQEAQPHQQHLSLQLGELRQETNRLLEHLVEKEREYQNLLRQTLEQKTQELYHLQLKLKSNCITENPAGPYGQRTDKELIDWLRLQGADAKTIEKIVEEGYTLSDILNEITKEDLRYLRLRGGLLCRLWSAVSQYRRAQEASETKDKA
Sequence of CLK3 (P49761 whole entry): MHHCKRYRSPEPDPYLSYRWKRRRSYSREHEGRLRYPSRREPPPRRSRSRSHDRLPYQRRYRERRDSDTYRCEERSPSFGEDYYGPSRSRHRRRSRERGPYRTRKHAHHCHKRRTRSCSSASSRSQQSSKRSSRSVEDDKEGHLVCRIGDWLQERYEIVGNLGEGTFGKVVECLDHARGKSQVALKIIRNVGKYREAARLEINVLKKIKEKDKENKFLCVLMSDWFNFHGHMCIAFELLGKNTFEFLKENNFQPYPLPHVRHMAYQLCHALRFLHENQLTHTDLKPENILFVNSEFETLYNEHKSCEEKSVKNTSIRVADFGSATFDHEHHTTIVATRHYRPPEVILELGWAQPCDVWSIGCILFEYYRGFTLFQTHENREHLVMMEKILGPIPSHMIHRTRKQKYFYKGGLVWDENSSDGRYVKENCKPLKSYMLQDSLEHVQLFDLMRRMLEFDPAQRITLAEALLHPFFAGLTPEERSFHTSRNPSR

Oc1ccc(C2=Cc3ccc(O)cc3OC2)cc1 [compound 1, idronoxil]
remaining binding at 10 µM (STK32A): 94% | remaining binding at 10 µM [1]: 75% | remaining binding at 10 µM (PRKX): 88% | remaining binding at 10 µM (MAP3K1): 76% | remaining binding at 10 µM (PIK3C3): 34% | remaining binding at 10 µM (KIAA0999): 89% | remaining binding at 10 µM (MAPK9): 93% | remaining binding at 10 µM (MARK2): 84% | remaining binding at 10 µM (MAPK10): 93% | remaining binding at 10 µM (PAK1): 60% | remaining binding at 10 µM (MAP3K15): 100% | remaining binding at 10 µM [2]: 8.3% | remaining binding at 10 µM (PIK3CA): 89% | remaining binding at 10 µM (CLK3): 70% | remaining binding at 10 µM (PRKD2): 94% | remaining binding at 10 µM (CSF1R-autoinhibited): 67% | remaining binding at 10 µM (MAP4K3): 92% | remaining binding at 10 µM (HIPK3): 33% | remaining binding at 10 µM (VRK2): 67% | remaining binding at 10 µM (GRK1): 100%
